Here are results for twelve compounds from ChEMBL document CHEMBL1135808, “A new type of mixed anhydride and its applications to the synthesis of 7-substituted 8-chloro-5,5-dioxoimidazo[1,2-b][1,4,2]benzodithiazines with in vitro antitumor activity” (2002).

Assay [1] deals with Tumor Cell line. As to the kind of experiment: In vitro inhibition of 50% cell growth was reported as log of molar concentration for 54 cell lines; Inactive. The note with it: Homo sapiens. The assay is classed as functional, cell-based.
Assay [2] relates to Tumor Cell line. The assay can be described thus: In vitro total growth inhibition for 50 cell lines was reported as log of molar concentration; Inactive. In kind it is functional, cell-based. The note with it: Homo sapiens.
For assay [3], the system named is Tumor Cell line. The assay can be described thus: Log of molar concentration leading to 50% cell death was reported; Inactive. In kind it is functional, cell-based. The note with it: Homo sapiens.
In assay [4] the test system is Tumor Cell line. As to the kind of experiment: In vitro inhibition of 50% cell growth was reported as log of molar concentration for 50 cell lines. In kind it is functional. The settings on record: Homo sapiens.
Assay [5] concerns Tumor Cell line. As to the kind of experiment: In vitro total growth inhibition for 50 cell lines was reported as log of molar concentration. The assay is classed as functional, Homo sapiens.
Assay [6] relates to Tumor Cell line. The assay can be described thus: In vitro inhibition of 50% cell growth was reported as log of molar concentration for 58 cell lines. In kind it is functional. The note with it: Homo sapiens.
Assay [7] relates to Tumor Cell line. As to the kind of experiment: Log of molar concentration leading to 50% cell death was reported. The note with it: Homo sapiens, read-out: Log LC50 (the source's name) (converted). The assay is classed as functional.
Assay [8] deals with Tumor Cell line. The assay can be described thus: In vitro inhibition of 50% cell growth was reported as log of molar concentration for 57 cell lines. In kind it is functional. The note with it: Homo sapiens.
Assay [9] relates to Tumor Cell line. The assay can be described thus: In vitro inhibition of 50% cell growth was reported as log of molar concentration for 56 cell lines. The assay is classed as functional. The settings on record: Homo sapiens.
Assay [10] has as its system Tumor Cell line. As to the kind of experiment: Log of molar concentration leading to 50% cell death was reported for 50 cell lines. The assay is classed as functional. The note with it: Homo sapiens, read-out: Log LC50 (the source's name) (converted).
Assay [11] concerns Tumor Cell line. As to the kind of experiment: In vitro inhibition of 50% cell growth was reported as log of molar concentration for 46 cell lines. In kind it is functional. The note with it: Homo sapiens.
Assay [12] concerns Tumor Cell line. As to the kind of experiment: In vitro inhibition of 50% cell growth was reported as log of molar concentration for 54 cell lines. The settings on record: Homo sapiens. In kind it is functional.

Molecules are shown by their SMILES. The source made the active and inactive calls. The rule behind the calls is not given here.

On to `O=C(c1cc2c(cc1Cl)Sc1nccn1S2(=O)=O)N1c2ccccc2C=Cc2ccccc21`, for which the IA result in the assay on Tumor Cell line [1], in the assay on Tumor Cell line [2] and in the assay with Tumor Cell line [3] was “inactive” throughout.

For the compound `Cc1ccnc(NC(=O)c2cc3c(cc2Cl)Sc2nccn2S3(=O)=O)c1`, the IA entry with Tumor Cell line [1], with Tumor Cell line [2] and in the assay on Tumor Cell line [3] was “inactive” each time.

As to `O=C(Nc1ccc2cc3ccccc3cc2c1)c1cc2c(cc1Cl)Sc1nccn1S2(=O)=O`, the GI50 (as a rule, the concentration at which growth is held to half of that of the control) with Tumor Cell line [4] was 87.1 µM. For the same compound, the “Log GTI” value in the assay on Tumor Cell line [5] is on record as -4.52.

For `O=C(Nc1ccccc1C(=O)Nc1ccccc1)c1cc2c(cc1Cl)Sc1nccn1S2(=O)=O`, the IA result in the assay with Tumor Cell line [1], in the assay with Tumor Cell line [2] and in the assay with Tumor Cell line [3] was “inactive” in each case.

Consider `O=C(Nc1ccccn1)c1cc2c(cc1Cl)Sc1nccn1S2(=O)=O`, for which the GI50 with Tumor Cell line [6] was 70.8 µM. The “Log GTI” value with Tumor Cell line [5] is reported as -4.02. Moreover, in the assay with Tumor Cell line [7], the CC50 was 58.9 µM.

Turning to `Cc1ccc2cc(NC(=O)c3cc4c(cc3Cl)Sc3nccn3S4(=O)=O)ccc2n1`, the GI50 in the assay on Tumor Cell line [8] was 33.9 µM. Also, in the assay with Tumor Cell line [5], the “Log GTI” value is reported as -4.06. Moreover, the CC50 with Tumor Cell line [7] is 100 µM.

Turning to `O=C(Oc1c(-c2ccccc2)oc2ccccc2c1=O)c1cc2c(cc1Cl)Sc1nccn1S2(=O)=O`, the IA entry in the assay with Tumor Cell line [1], in the assay with Tumor Cell line [2] and in the assay on Tumor Cell line [3] was “inactive” throughout.

As to `O=C(Nc1cccc2cnccc12)c1cc2c(cc1Cl)Sc1nccn1S2(=O)=O`, the concentration for 50% growth inhibition (GI50) in the assay on Tumor Cell line [9] was 39.8 µM. In the assay with Tumor Cell line [5], the “Log GTI” value is listed as -4.04. The CC50 in the assay on Tumor Cell line [10] is 100 µM.

`O=C(Nc1ccc2scnc2c1)c1cc2c(cc1Cl)Sc1nccn1S2(=O)=O`: the IA result in the assay with Tumor Cell line [1], in the assay with Tumor Cell line [2] and with Tumor Cell line [3] was “inactive” each time.

`O=c1c2ccccc2nc(-c2cc3c(cc2Cl)Sc2nccn2S3(=O)=O)n1-c1ccccc1` showed a GI50 in the assay with Tumor Cell line [11] of 89.1 µM. Further, in the assay with Tumor Cell line [5], the “Log GTI” value is on record as -4.07. In the assay with Tumor Cell line [7], the CC50 is 85.1 µM.

For the compound `O=C1c2ccccc2/N=C(/c2cc3c(cc2Cl)Sc2nccn2S3(=O)=O)OS(=O)(=O)N1c1ccccc1`, the GI50 in the assay on Tumor Cell line [12] is 81.3 µM. The “Log GTI” value in the assay with Tumor Cell line [5] is recorded as -4.04. Besides, the CC50 in the assay with Tumor Cell line [7] was 91.2 µM.

For `Cc1cccnc1NC(=O)c1cc2c(cc1Cl)Sc1nccn1S2(=O)=O`, the IA entry with Tumor Cell line [1], in the assay with Tumor Cell line [2] and with Tumor Cell line [3] was “inactive” in each case.
